In patent publication US20060100173A1, “Ophthalmic solution” (priority 2004, published 2006):
Structures can show the parent of a compound that is named as a salt.

System: five organisms
Assay: Antimicrobial activity, sum of log drops of five organisms
Format: cell-based
Conditions: HA 1.7M relative to non-HA control and/or lower molecular weight HA compositions; Tris buffered

| Compound | reduction of the sum of the kill level by HA of MW 1.7M |
| --- | --- |
| CCCCC(CC)CNC(=N)NC(=N)NCCCCCCNC(=N)NC(=N)NCC(CC)CCCC (centres unmarked) [ALX, Alexidine Dihydrochloride] | about 2 log |
| poly[hexamethylene biguanide hydrochloride] [PHMB] | about 4 log |
